This note sets out measurements from US20240182456A1, “2-((4-((S)-2-(4-CHLORO-2-FLUOROPHENYL)-2-METHYLBENZO[D][1,3]DIOXOL-4-YL)PIPERIDIN-1-YL)METHYL)-1-(((S)-OXETAN-2-YL)METHYL)-1H-IMIDAZOLE DERIVATIVES AS ACTIVATORS OF THE GLP1 RECEPTOR FOR THE TREATMENT OF OBESITY” (Novartis AG, priority 2021, published 2024).

pEC50: −log10 of the molar value. Like-named read-outs stand apart in the source and are kept apart here. A value given as a limit tells only on which side of the number the result lay.

Test [1] concerns the target human GLP1R (hGLP1R) (Homo sapiens, UniProt P43220). In words: Human GLP1R cAMP agonist assay (GloSensor). Type of test: cell-based. Particulars: for pEC50: intracellular cAMP, mean n=3 where SEM is given; for Emax: read-out: Emax mean. Here is the method:
(§1) Compounds 1 to 31 were tested in the following cellular assays that measure the intracellular cAMP concentration, beta-arrestin recruitment and receptor internalization. The cAMP is generated by the activation of GLP1R. The cAMP data obtained is shown in Table 1 (where S.E.M. is included, mean n=3 independent experiments+/−S.E.M). Beta-arrestin is recruited upon activation of GLP1R and the data obtained are shown in Table 2 (mean n=2 independent experiments, +/−S.D). The extent to which the GLP1R is internalized into the cell and away from the plasma membrane following activation is also shown in Table 2 (mean n=2 independent experiments, +/−S.D). EC50 for each assay is defined as the concentration of the compound that leads to half of the maximum response (after baseline correction). Emax is defined as the maximum response observed for the test compound, normalized to the maximum response observed for the endogenous ligand (GLP1(7-36)) to GLP1R.
Human GLP1R cAMP Agonist Assay
The agonist activity of compounds was determined using the GloSensor™ cAMP Assay (Promega Corp.), which measures changes in the intracellular concentration of cAMP after ligand activation of GPCRs. The assay uses a biosensor encoded by pGloSensor™-22F cAMP plasmid (Promega, cat #E2301) with cAMP binding domains fused to a mutant form of Photinus pyralis luciferase. Binding to cAMP causes conformational changes that promote large increases in light output, which can be measured by a luminescence detector. HEK293-SNAP-hGLP1R-GloSensor cells stably overexpressing the human GLP1 receptor (hGLP1R) and pGloSensor™-22F were seeded in white 384-well poly-D-Lysine coated plates (Greiner Bio One, cat #781945) in CO2-independent media (Gibco cat #18045-088 with 1.0% FBS, 2 mM L-glutamine, penicillin and streptomycin) and incubated overnight at 37° C., 5% CO2 with humidity. The assay was started the following morning by adding an equal volume of CO2-independent media containing 4% v/v dilution of the GloSensor substrate (Promega, cat #E1291) to all wells. The cell plate was incubated at rt for 2 h in the dark. The Biomek 7 (Beckman Coulter) instrument was used for the liquid handling steps. To generate duplicate dose response curves, 3-fold serially diluted compounds were added in to the cell assay plate to a final volume of 60 μL with final concentrations ranging from 30 μM through 0.06 μM in CO2-independent media containing 0.1% BSA, 0.5 mM IBMX and 0.4% DMSO. In the same plate and assay buffer as the tested compounds, were EC100 control wells containing GLP1 (7-36) peptide (Bachem, cat #H-6795) at a final concentration of 2 nM and also EC0 control wells containing no peptide. This plate was incubated at rt in the dark for 12 min after adding the compounds to the cells. Luminescence was then measured with an Envision 2104 Multilabel reader with “TRF Light Unit, 337 nm” (PerkinElmer) using the Ultra-Sensitive protocol setting “384-well US luminescence detector” with the 384-well luminescence aperture, 0.1 seconds per well. cAMP activity was calculated as percent of the GLP1 (7-36) EC100 control wells: [(sample signal−mean EC0 signal)/(mean EC100 of GLP1 (7-36) signal−mean EC0 signal)}*100. Curve fitting for EC50 determinations was performed in the Helios module of the software package DAVID. The 4-parameter logistic model, Hill slope was used: y=Ainf+(A0−Ainf)/(1+(x/AC50)^Hill Slope) where y is the functional response; x is the compound concentration; A0 is the minimum value (at 0 dose); Ainf is the maximum value (at infinite dose); AC50 corresponds to the point of inflection (i.e. the point on the sigmoid shaped curve halfway between A0 and Ainf). The EC50 value was represented by the AC50 value calculated from Helios in μM. Emax is the maximal activity detected within the concentration range, derived from the fitted curve. […]

In test [2] the target is human GLP1R (Homo sapiens, UniProt P43220). In words: Human GLP1R DERET internalization assay. Type of test: cell-based. Particulars: HEK293-SNAP-hGLP1R-GloSensor cells; for pEC50: mean n=2; for Emax: relative to GLP1(7-36). How it is done:
as §1
The extent to which agonists internalize the human GLP1R was determined based on an optimized version of a RealTime FRET-based ‘DERET’ (Dissociation Enhanced Resonance Energy Transfer) assay. The technology relies on labeling of the SNAP-tagged GPCR with a SNAP-Lumi-Terbium (donor fluorophore, Cisbio, cat #SSNPTBD). The compounds are incubated with the cells over-expressing the GPCR of interest in the presence of an excess of fluorescein (acceptor fluorophore). When the GPCR is on the cell surface, the donor signal is quenched by the acceptor and the donor/acceptor ratio is low. As the GPCR internalizes, the donor signal is no longer quenched, and the acceptor is no longer excited so the donor/acceptor ratio increases.
HEK293-SNAP-hGLP1R-GloSensor cells (stably overexpressing SNAP-tagged hGLP1R) were seeded overnight in white 384-well poly-D-Lysine coated plates (Greiner Bio One, cat #781945) in regular DMEM growth medium (Gibco, cat #11965-092, 10% heat-inactivated FBS, 10 mM HEPES, 1× penicillin/streptomycin, 0.5 mg/mL geneticin (Gibco, cat #10131-035) and 0.25 mg/mL hygromycin B (Invitrogen, cat #10687010). On the assay day, cell medium was removed and 100 nM SNAP-Lumi-Tb reagent was added in Opti-MEM solution. The cells were incubated at 37° C. for 1 h. Cells were washed using a plate washer in assay buffer [1×HBSS (10× Gibco, cat #14065-056), 20 mM Hepes (Gibco, cat #15630-080), 1 mM CaCl2 (Fluka, cat #21114-1L), 1 mM MgCl2 (Ambion, cat #AM9530G) pH7.4], and 20 μL buffer with 0.1% BSA was added to each well. After leaving cells to equilibrate for ˜15 min at 37° C., 10 μL of Fluorescein (sodium salt, Sigma, cat #F6377, diluted in buffer) was added at 25 μM final concentration. To generate triplicate dose response curves, compounds were serially diluted 3-fold in assay buffer, then added to the cell assay plate to a final volume of 40 μL and final top concentrations starting at 30 μM. In the same plate and assay buffer as the tested compounds, a GLP1 (7-36) peptide (Bachem, cat #H-6795) control curve was included at a final top concentration of 1 μM in order to establish EC100. EC0 wells with buffer only were also included. The plate FRET fluorescence was measured immediately using a Perkin Elmer Envision with LANCE/DELFIA D400 single mirror, excitation filter X320, and emission filters M615_203 (donor emission) and M515 (acceptor emission), and then measured every 30 min. […] Plates were kept at 37° C. between reads. Data was expressed as the ratio of donor/acceptor emissions using Microsoft Excel and plotted in GraphPad Prism. In order to determine EC50 and Emax for internalization, data was calculated and expressed as percent of the GLP1 (7-36) EC100 control wells: [(sample signal−mean EC0 signal)/(mean EC100 of GLP1 (7-36) signal−mean EC0 signal)]*100 using Microsoft Excel. Curve fitting for EC50 determinations was performed using GraphPad Prism. The 4-parameter logistic model, Hill slope was used:
Y=Bottom+(Top−Bottom)/(1+10^((Log EC50−X)*Hill Slope)), […]

The mark [3] stands for this setting: HEK293-SNAP-hGLP1R-GloSensor cells.
[4] abbreviates: HEK293-SNAP-hGLP1R-GloSensor cells, cAMP, normalized to GLP1(7-36) maximum response.

human GLP1R, sequence (P43220 24-463): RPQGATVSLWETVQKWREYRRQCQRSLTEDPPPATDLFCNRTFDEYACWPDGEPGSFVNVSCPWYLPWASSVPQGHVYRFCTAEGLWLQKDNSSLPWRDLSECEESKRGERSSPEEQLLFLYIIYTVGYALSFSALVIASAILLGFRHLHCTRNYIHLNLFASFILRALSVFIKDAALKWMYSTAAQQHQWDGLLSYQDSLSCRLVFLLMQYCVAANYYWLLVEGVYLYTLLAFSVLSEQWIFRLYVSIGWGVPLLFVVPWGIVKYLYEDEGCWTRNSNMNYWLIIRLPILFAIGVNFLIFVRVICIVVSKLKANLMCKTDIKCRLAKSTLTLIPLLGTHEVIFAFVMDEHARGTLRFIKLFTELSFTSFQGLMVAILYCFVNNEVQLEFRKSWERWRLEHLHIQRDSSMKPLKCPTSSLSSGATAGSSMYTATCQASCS
human GLP1R (hGLP1R), sequence (P43220 24-463): as above

As a reminder, the pEC50 is the EC50 on a negative log10 scale, so that one unit is a factor of ten. Usually Emax stands for the greatest response seen or fitted, relative to the assay's reference. Turning to `Cc1nc(CN2CCC(c3cccc4c3O[C@@](C)(c3ccc(Cl)cc3F)O4)CC2)n(C[C@@H]2CCO2)c1-c1nc(=O)o[nH]1` [Compound C-20, 3-(2-((4-((S)-2-(4-chloro-2-fluorophenyl)-2-methylbenzo[d][1,3]dioxol-4-yl)piperidin-1-yl)methyl)-4-methyl-1-(((S)-oxetan-2-yl)methyl)-1H-imidazol-5-yl)-1,2,4-oxadiazol-5(2H)-one], the pEC50 is 9.69 in test [1] (setting [3]) and less than 4.52 in test [2]. Moreover, the Emax is 104% in test [1] and 6% in test [2].
Consider `Cc1nc(CN2CCC(c3cccc4c3O[C@@](C)(c3ccc(Cl)cc3F)O4)CC2)n(C[C@@H]2CCO2)c1C(=O)NCC(=O)O` [Compound C-16, (2-((4-((S)-2-(4-chloro-2-fluorophenyl)-2-methylbenzo[d][1,3]dioxol-4-yl)piperidin-1-yl)methyl)-4-methyl-1-(((S)-oxetan-2-yl)methyl)-1H-imidazole-5-carbonyl)glycine], for which the figures for the Emax in test [1] (setting [4]) and in test [2] were 105% and 8%, respectively. Further, the values for the pEC50 in test [1] (setting [3]) and in test [2] were 8.07 and less than 4.52, respectively.
For `Cc1c(-c2nc(=O)o[nH]2)nc(CN2CCC(c3cccc4c3O[C@@](C)(c3ccc(Cl)cc3F)O4)CC2)n1C[C@@H]1CCO1` [Compound C-21, 3-(2-((4-((S)-2-(4-chloro-2-fluorophenyl)-2-methylbenzo[d][1,3]dioxol-4-yl)piperidin-1-yl)methyl)-5-methyl-1-(((S)-oxetan-2-yl)methyl)-1H-imidazol-4-yl)-1,2,4-oxadiazol-5(2H)-one], in that order: 104%, 13%, 9.53 and 5.75.
For `Cc1c(-c2cncc(C(=O)O)c2)nc(CN2CCC(c3cccc4c3O[C@@](C)(c3ccc(Cl)cc3F)O4)CC2)n1C[C@@H]1CCO1` [Compound C-12, 5-(2-((4-((S)-2-(4-chloro-2-fluorophenyl)-2-methylbenzo[d][1,3]dioxol-4-yl)piperidin-1-yl)methyl)-5-methyl-1-(((S)-oxetan-2-yl)methyl)-1H-imidazol-4-yl)nicotinic acid], in that order: 113%, 10%, 9.22 and less than 4.52.
In the case of `Cc1nc(CN2CCC(c3cccc4c3O[C@@](C)(c3ccc(Cl)cc3F)O4)CC2)n(C[C@@H]2CCO2)c1/C=C(/F)C(=O)O` [Compound C-19a, (E)-3-(2-((4-((S)-2-(4-chloro-2-fluorophenyl)-2-methylbenzo[d][1,3]dioxol-4-yl)piperidin-1-yl)methyl)-4-methyl-1-(((S)-oxetan-2-yl)methyl)-1H-imidazol-5-yl)-2-fluoroacrylic acid], the values for the Emax in test [1] (setting [4]) and in test [2] were 110% and 27%, respectively. The pEC50 in test [1] (setting [3]) is 10.86; in test [2], 7.07.
With `Cc1c(/C=C/C(=O)O)nc(CN2CCC(c3cccc4c3O[C@@](C)(c3ccc(Cl)cc3F)O4)CC2)n1C[C@@H]1CCO1` [Compound C-6, (E)-3-(2-((4-((S)-2-(4-chloro-2-fluorophenyl)-2-methylbenzo[d][1,3]dioxol-4-yl)piperidin-1-yl)methyl)-5-methyl-1-(((S)-oxetan-2-yl)methyl)-1H-imidazol-4-yl)acrylic acid], the Emax in test [1] (setting [4]) came out at 105%; in test [2], 5%. For the same compound, the pEC50 in test [1] (setting [3]) is 8.17; in test [2], less than 4.52.
